Here are results for 1 molecule from paper PMC6934184, “Selective DNA-PKcs inhibition extends the therapeutic index of localized radiotherapy and chemotherapy” (The Journal of Clinical Investigation, 2019).

The experiment deals with T1, KIT V559D T670I (Homo sapiens, UniProt P10721, T670I/V559D).
T1 construct: purchased Thermo Fisher Scientific (Life Technologies) SelectScreen
The experiment in a line: SelectScreen LanthaScreen. It is filed as binding. To be noted: read-out: % displacement. Summed up: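 Percent values come from Thermo SelectScreen profiling of NU5455, combining activity and binding assays. CSF1R was run in Z'LYTE format at Km app ATP, and CAMK1 in Adapta format with ATP listed at 10.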
For orientation: In TR-FRET formats the signal depends on donor and acceptor labels being close together.

T1 sequence (P10721 26-976 V559D/T670I): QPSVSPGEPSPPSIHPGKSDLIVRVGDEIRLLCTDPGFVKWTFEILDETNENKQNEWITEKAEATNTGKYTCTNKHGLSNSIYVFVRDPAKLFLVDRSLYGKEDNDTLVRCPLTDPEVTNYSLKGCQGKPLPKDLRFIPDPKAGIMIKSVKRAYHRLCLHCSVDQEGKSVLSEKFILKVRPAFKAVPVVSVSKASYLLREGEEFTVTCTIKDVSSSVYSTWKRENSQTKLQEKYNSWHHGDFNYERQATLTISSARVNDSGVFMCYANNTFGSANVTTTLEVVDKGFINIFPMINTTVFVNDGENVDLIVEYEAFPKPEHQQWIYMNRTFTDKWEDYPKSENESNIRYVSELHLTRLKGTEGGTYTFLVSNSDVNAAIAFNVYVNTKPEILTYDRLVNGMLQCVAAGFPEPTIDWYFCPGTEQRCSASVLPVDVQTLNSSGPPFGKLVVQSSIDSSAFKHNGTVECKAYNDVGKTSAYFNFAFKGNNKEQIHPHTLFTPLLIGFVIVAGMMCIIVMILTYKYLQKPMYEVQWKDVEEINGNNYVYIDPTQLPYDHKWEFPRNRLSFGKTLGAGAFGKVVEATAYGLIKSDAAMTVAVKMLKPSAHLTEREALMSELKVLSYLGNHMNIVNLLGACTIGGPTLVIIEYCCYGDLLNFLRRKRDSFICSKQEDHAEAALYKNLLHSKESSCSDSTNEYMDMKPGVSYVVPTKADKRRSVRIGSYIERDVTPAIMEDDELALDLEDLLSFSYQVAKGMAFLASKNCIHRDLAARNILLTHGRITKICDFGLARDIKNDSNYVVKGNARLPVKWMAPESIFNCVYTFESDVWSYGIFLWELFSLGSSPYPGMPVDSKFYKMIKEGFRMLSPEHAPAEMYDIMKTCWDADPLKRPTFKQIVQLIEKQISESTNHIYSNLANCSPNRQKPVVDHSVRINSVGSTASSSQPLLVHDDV

Consider `CN(C(=O)CN1CCOCC1)c1ccc2sc3c(-c4cccc5c(=O)cc(N6CC7CCC(C6)O7)oc45)cccc3c2c1` [NU5455], for which the inhibition at 1 µM was determined as 3.1%.
